In one data set the test system is COVID-19. Nature of the data set: Phase 3 multi-center, randomized, double-blind, placebo-controlled study of Bucillamine in patients with mild-moderate COVID-19. It counts as in vivo, human. The note with it: Bucillamine 100 mg or 200 mg TID for up to 14 days, preliminary indications to date. The method, then: A Phase 3 confirmatory clinical trial titled, “A Multi-Center, Randomized, Double-Blind, Placebo-Controlled Study of Bucillamine in Patients with Mild-Moderate COVID-19”, was undertaken to enroll up to 1,000 patients randomized 1:1:1 to receive Bucillamine 100 mg three times a day (“TID”), Bucillamine 200 mg TID or placebo TID for up to 14 days. The primary objective is to compare the frequency of hospitalization or death in patients with mild-moderate COVID-19 receiving Bucillamine therapy with those receiving placebo. The primary endpoint is the proportion of patients meeting a composite endpoint of hospitalization or death from the time of the first dose through Day 28 following randomization. Efficacy was assessed by comparing clinical outcomes (death or hospitalization), disease severity using the 8-category NIAID COVID ordinal scale, supplemental oxygen use, and progression of COVID-19 between patients receiving standard-of-care plus Bucillamine (high dose and/or low dose) and patients receiving standard-of-care plus placebo.

For data set [1] the following is noted: versus N-acetylcysteine (NAC); cited from earlier work.
For data set [2] the following is noted: statement with literature references 8, 9; cited from earlier work.
The conditions of data set [3]: not told; cited from earlier work.

Each structure is given as a SMILES string.

For the compound `CC(C)(S)C(=O)NC(CS)C(=O)O` (stereo not drawn) [Bucillamine, N-(mercapto-2-methylpropionyl)-l-cysteine], in the data set with COVID-19, the “hospitalization or death from COVID-19 (composite clinical outcome)” value is given as “none of the patients receiving Bucillamine in the trial have to date been hospitalised for COVID-19 or have died from COVID-19”. Besides, the “potency as a thiol donor in vivo relative to NAC” value in data set [1] is 16 fold. The toxicity entry in data set [2] is listed as “non-toxic”. Moreover, the cell permeability result in data set [3] is “highly cell permeable”.

(Values after patent publication US20230172884A1, “USE OF BUCILLAMINE IN THE TREATMENT OF INFECTIOUS DISEASES” (Revive Therapeutics Ltd, priority 2020, published 2023).)
